Test in all cases: Antibacterial activity (MIC), Japan Society of Chemotherapy standard method
What all share (assay type): cell-based

In one assay the test system is E. coli NIHJ. How it is done:
(§1) Antibacterial activities of the compounds of the invention were measured in accordance with the standard method specified by the Japan Society of Chemotherapy, with the results shown in the following table as MIC values (μg/ml). In this connection, MIC values of levofloxacin (LVFX), ciprofloxacin (CPFX) and 5-amino-7-[3-(R)-[1-(S)-aminoethyl]pyrrolidin-1-yl]-6-fluoro-1-[2-(S)-fluoro-1-(R)-cyclopropyl]-8-methyl-1,4-dihydro-4-oxoquinoline-3-carboxylic acid (control drug 1) described in WO 9623782 are also shown for the sake of comparison with the MIC values of the compounds of the invention.

In a further assay the test system is E. faecalis ATCC 19433. How it is done:
as §1

A further assay concerns K. pneumoniae TYPE 1. How it is done: as §1
The next assay relates to Pr. Vulgaris O8601. How it is done: as §1
In another assay the test system is Ps. aeruginosa 32104. How it is done:
as §1

The test system of a further assay is Ps. aeruginosa 32121. How it is done:
as §1

Another assay deals with S. aureus 870307. How it is done: as §1
For a further assay, the system named is S. aureus FDA 209P. How it is done:
as §1

The next assay deals with S. epidermidis 56500. How it is done:
as §1

The subject of a further assay is S. flexneri 2A 5503. How it is done: as §1
A further assay relates to Ser. marcescens 10100. How it is done: as §1
The next assay has as its system Str. pneumoniae J24. How it is done:
as §1

A further assay deals with Str. pyrogenes G-36. How it is done: as §1
In another assay the test system is X. maltophilia IID 1275. How it is done:
as §1

[1] abbreviates: Escherichia coli, read-out: MIC.
[2] abbreviates: Enterococcus faecalis, ATCC19433, E. faecalis ATCC 19433, read-out: MIC.
Setting [3] is: Klebsiella pneumoniae, TYPE1, K. pneumoniae TYPE 1, read-out: MIC.
[4] abbreviates: Proteus vulgaris, read-out: MIC.
The mark [5] stands for this setting: Pseudomonas aeruginosa, 32104, Ps. aeruginosa 32104, read-out: MIC.
Setting [6] is: Pseudomonas aeruginosa, 32121, Ps. aeruginosa 32121, read-out: MIC.
[7] abbreviates: Staphylococcus aureus, 870307, S. aureus 870307, read-out: MIC.
[8] abbreviates: Staphylococcus aureus, FDA209P, read-out: MIC.
Where [9] appears, read: Staphylococcus epidermidis, read-out: MIC.
[10] abbreviates: Shigella flexneri, 2A5503, S. flexneri 2A 5503, read-out: MIC.
The mark [11] stands for this setting: Serratia marcescens, 10100, Ser. marcescens 10100, read-out: MIC.
[12] abbreviates: Streptococcus pneumoniae, J24, Str. pneumoniae J24, read-out: MIC.
Setting [13] is: Stenotrophomonas maltophilia, IID1275, X. maltophilia IID 1275, read-out: MIC.

SMILES strings stand for the structures. ≈ marks a conversion by molar mass, not a printed value. Read-outs that look alike come from different tables or passages of the source. Bounds are passed on as bounds.

One may read the MIC as the smallest concentration in the dilution series that meets the test's criterion for growth inhibition.

On to `Cc1c(N2CC[C@@H](C(N)c3ccccn3)C2)c(F)c(N)c2c(=O)c(C(=O)O)cn([C@@H]3C[C@@H]3F)c12` (stereo partly drawn) [Example 17, 5-Amino-7-{3-(R)-[1-amino-1-(2-pyridyl)methyl]-1-pyrrolidiny}-6-fluoro-1-[(1R, 2S)-2-fluorocyclopropyl)-1,4-dihydro-8-methyl-4-oxoquinoline-3-carboxylic acid], for which the MIC entry is “≦0.003 μg/ml” in the assay on E. coli NIHJ; 0.025 µg/mL (≈ 0.0532 µM) with E. faecalis ATCC 19433 (E. faecalis ATCC 19433); 0.05 µg/mL (≈ 0.106 µM) in the assay with K. pneumoniae TYPE 1 (K. pneumoniae TYPE 1); 0.05 µg/mL (≈ 0.106 µM) in the assay on Pr. Vulgaris O8601; 0.2 µg/mL (≈ 0.426 µM) in the assay with Ps. aeruginosa 32104 (Ps. aeruginosa 32104); 0.1 µg/mL (≈ 0.213 µM) against Ps. aeruginosa 32121 (Ps. aeruginosa 32121). Moreover, the MIC was 0.013 µg/mL (≈ 0.0277 µM) against S. aureus 870307 (S. aureus 870307); “≦0.003 μg/ml” in the assay with S. aureus FDA 209P; “≦0.003 μg/ml” in the assay on S. epidermidis 56500; 0.006 µg/mL (≈ 0.0128 µM) against S. flexneri 2A 5503 (S. flexneri 2A 5503); 0.1 µg/mL (≈ 0.213 µM) in the assay with Ser. marcescens 10100 (Ser. marcescens 10100); “≦0.003 μg/ml” in the assay on Str. pneumoniae J24 (Str. pneumoniae J24). The minimum inhibitory concentration (MIC) entry against Str. pyrogenes G-36 was “≦0.003 μg/ml”; against X. maltophilia IID 1275 (X. maltophilia IID 1275) it was 0.05 µg/mL (≈ 0.106 µM).

For `Nc1c(F)c(N2CC[C@@H](C(N)c3cccnc3)C2)c(F)c2c1c(=O)c(C(=O)O)cn2[C@@H]1C[C@@H]1F` (stereo partly drawn) [Example 19, 5-Amino-7-(3-(R)-[1-amino-1-(3-pyridyl)methyl]-1-pyrrolidinyl]-6,8-difluoro-1-[(1R, 2S)-2-fluorocyclopropyl]-1,4-dihydro-4-oxoquinoline-3-carboxylic acid], the MIC with E. coli NIHJ (setting [1]) is at most 0.003 µg/mL; in the assay on E. faecalis ATCC 19433 (setting [2]) it was 0.025 µg/mL (≈ 0.0528 µM); with K. pneumoniae TYPE 1 (setting [3]) it was 0.025 µg/mL (≈ 0.0528 µM); in the assay on Pr. Vulgaris O8601 (setting [4]), 0.025 µg/mL (≈ 0.0528 µM); in the assay with Ps. aeruginosa 32104 (setting [5]), 0.2 µg/mL (≈ 0.422 µM); in the assay with Ps. aeruginosa 32121 (setting [6]), 0.05 µg/mL (≈ 0.106 µM). For the same molecule, the MIC with S. aureus 870307 (setting [7]) was 0.025 µg/mL (≈ 0.0528 µM); in the assay with S. aureus FDA 209P (setting [8]), at most 0.003 µg/mL; with S. epidermidis 56500 (setting [9]), at most 0.003 µg/mL; in the assay with S. flexneri 2A 5503 (setting [10]), at most 0.003 µg/mL; with Ser. marcescens 10100 (setting [11]) it was 0.1 µg/mL (≈ 0.211 µM); in the assay with Str. pneumoniae J24 (setting [12]), at most 0.003 µg/mL. Further, the values for the MIC in the assay on Str. pyrogenes G-36 (read-out: MIC) and with X. maltophilia IID 1275 (setting [13]) were at most 0.003 µg/mL and 0.1 µg/mL (≈ 0.211 µM), respectively.

Regarding `Cc1c(N2CC[C@@H](C(N)c3cccnc3)C2)c(F)c(N)c2c(=O)c(C(=O)O)cn([C@@H]3C[C@@H]3F)c12` (stereo partly drawn) [Example 20, 5-Amino-7-(3-(R)-[1-amino-1-(3-pyridyl)methyl]-1-pyrrolidinyl)-6-fluoro-1-[(1R,2S)-2-fluorocyclopropyl]-1,4-dihydro-8-methyl-4-oxoquinoline-3-carboxylic acid], the MIC came out at 0.006 µg/mL (≈ 0.0128 µM) in the assay with E. coli NIHJ (setting [1]); 0.025 µg/mL (≈ 0.0532 µM) with E. faecalis ATCC 19433 (setting [2]); 0.05 µg/mL (≈ 0.106 µM) in the assay with K. pneumoniae TYPE 1 (setting [3]); 0.025 µg/mL (≈ 0.0532 µM) in the assay with Pr. Vulgaris O8601 (setting [4]); 0.2 µg/mL (≈ 0.426 µM) in the assay with Ps. aeruginosa 32104 (setting [5]); 0.05 µg/mL (≈ 0.106 µM) with Ps. aeruginosa 32121 (setting [6]). In addition, the minimum inhibitory concentration (MIC) in the assay on S. aureus 870307 (setting [7]) was 0.05 µg/mL (≈ 0.106 µM); in the assay on S. aureus FDA 209P (setting [8]) it was at most 0.003 µg/mL; in the assay on S. epidermidis 56500 (setting [9]) it was at most 0.003 µg/mL; in the assay with S. flexneri 2A 5503 (setting [10]), 0.006 µg/mL (≈ 0.0128 µM); in the assay with Ser. marcescens 10100 (setting [11]), 0.1 µg/mL (≈ 0.213 µM); in the assay with Str. pneumoniae J24 (setting [12]), at most 0.003 µg/mL. The MIC in the assay with Str. pyrogenes G-36 (read-out: MIC) is at most 0.003 µg/mL; in the assay with X. maltophilia IID 1275 (setting [13]) it was 0.2 µg/mL (≈ 0.426 µM).

For `C[C@H]1COc2c(N3CCN(C)CC3)c(F)cc3c(=O)c(C(=O)O)cn1c23` [LVFX, levofloxacin, reference compound], the MIC is 0.013 µg/mL (≈ 0.036 µM) with E. coli NIHJ (setting [1]); 0.78 µg/mL (≈ 2.16 µM) in the assay on E. faecalis ATCC 19433 (setting [2]); 0.1 µg/mL (≈ 0.277 µM) with K. pneumoniae TYPE 1 (setting [3]); 0.13 µg/mL (≈ 0.36 µM) in the assay with Pr. Vulgaris O8601 (setting [4]); 0.2 µg/mL (≈ 0.553 µM) with Ps. aeruginosa 32104 (setting [5]); 0.1 µg/mL (≈ 0.277 µM) in the assay on Ps. aeruginosa 32121 (setting [6]). The MIC in the assay on S. aureus 870307 (setting [7]) is over 6.25 µg/mL; in the assay on S. aureus FDA 209P (setting [8]), 0.2 µg/mL (≈ 0.553 µM); in the assay with S. epidermidis 56500 (setting [9]) it was 0.39 µg/mL (≈ 1.08 µM); in the assay on S. flexneri 2A 5503 (setting [10]), 0.025 µg/mL (≈ 0.0692 µM); in the assay on Ser. marcescens 10100 (setting [11]) it was 0.1 µg/mL (≈ 0.277 µM); in the assay on Str. pneumoniae J24 (setting [12]), 0.78 µg/mL (≈ 2.16 µM). In addition, the MIC in the assay on Str. pyrogenes G-36 (read-out: MIC) worked out at 0.2 µg/mL (≈ 0.553 µM); in the assay with X. maltophilia IID 1275 (setting [13]), 0.39 µg/mL (≈ 1.08 µM).
